Laboratory results taken from US11066414B2, “Cot modulators and methods of use thereof” (Gilead Sciences, Inc., priority 2015, dated 2021).
Read-outs that look alike come from different tables or passages of the source.

Assays:
Human Cot = Human Cot (Homo sapiens (Human), UniProt P41279); experiment: High Throughput Cot Biochemical Assay; settings: Cot HTRF (TR-FRET) biochemical assay
TNFα = experiment: Cot Monocyte TNFα Cell Based Assay
[1] = Homo sapiens, Monocyte, read-out: EC50 TNF, LPS-stimulated human monocytes, TNFα

Chain of Human Cot (P41279 30-397): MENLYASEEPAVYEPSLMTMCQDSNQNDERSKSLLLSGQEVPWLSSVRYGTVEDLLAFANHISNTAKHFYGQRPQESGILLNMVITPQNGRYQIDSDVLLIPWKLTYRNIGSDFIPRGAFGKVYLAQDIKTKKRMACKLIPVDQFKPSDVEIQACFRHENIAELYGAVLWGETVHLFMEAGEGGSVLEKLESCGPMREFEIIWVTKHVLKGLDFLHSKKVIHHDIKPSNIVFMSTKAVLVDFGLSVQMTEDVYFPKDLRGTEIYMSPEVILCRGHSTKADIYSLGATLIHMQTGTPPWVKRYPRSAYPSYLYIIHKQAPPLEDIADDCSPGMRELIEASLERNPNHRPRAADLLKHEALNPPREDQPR

| IC50 (Human Cot; IC50 HTRF) [µM] | EC50 (TNFα; [1]) [µM] | IC50 (Human Cot; read-out: IC50 HTRF) [µM] | EC50 (TNFα; read-out: EC50 TNF, LPS-stimulated human monocytes, TNFα) [µM] | Compound |
| --- | --- | --- | --- | --- |
| 0.001 | 0.019 |  |  | CC(C)(C)CNc1c(C#N)cnc2c(Cl)cc(N[C@H](c3cn(C4CC4)nn3)c3cccc4cnccc34)cc12 [Example 443, (S)-8-chloro-6-(((1-cyclopropyl-1H-1,2,3-triazol-4-yl)(isoquinolin-5-yl)methyl)amino)-4-(neopentylamino)quinoline-3-carbonitrile] |
|  |  | 0.002 | 0.033 | CC(C)(C)CNc1c(C#N)cnc2c(C#N)cc(N[C@H](c3cn(C4(C(F)F)CC4)nn3)c3cccn4nccc34)cc12 [Example 444] |
| 0.003 | 0.156 |  |  | CC(C)(C)CNc1c(C#N)cnc2c(Cl)cc(N[C@H](c3cn(C4CC4)nn3)c3cccn4cncc34)cc12 [Example 446, (S)-8-chloro-6-(((1-cyclopropyl-1H-1,2,3-triazol-4-yl)(imidazo[1,5-a]pyridin-8-yl)methyl)amino)-4-(neopentylamino)-quinoline-3-carbonitrile] |
| 0.002 | 0.044 |  |  | CC(C)(C)CNc1c(C#N)cnc2c(Cl)cc(N[C@H](c3cn(C4CC4)nn3)c3cccc4[nH]ncc34)cc12 [Example 448, (S)-8-chloro-6-(((1-cyclopropyl-1H-1,2,3-triazol-4-yl)(1H-indazol-4-yl)methyl)-amino)-4-(neopentylamino)quinoline-3-carbonitrile] |
| 0.019 | 0.407 |  |  | CC(C)(C)CNc1c(C#N)cnc2c(Cl)cc(N[C@H](c3cn(C4CC4)nn3)c3cccc4scnc34)cc12 [Example 449, (S)-6-((benzo[d]thiazol-4-yl(1-cyclopropyl-1H-1,2,3-triazol-4-yl)methyl)amino)-8-chloro-4-(neopentylamino)quinoline-3-carbonitrile] |
| 0.02 | 0.356 |  |  | CC(C)(C)CNc1c(C#N)cnc2c(Cl)cc(N[C@H](c3cn(C4CC4)nn3)c3cccc4cccnc34)cc12 [Example 450, (S)-8-chloro-6-(((1-cyclopropyl-1H-1,2,3-triazol-4-yl)(quinolin-8-yl)methyl)amino)-4-(neopentylamino)quinoline-3-carbonitrile] |
| 0.003 | 0.138 |  |  | CC(C)(C)CNc1c(C#N)cnc2c(C#N)cc(N[C@H](c3cn(C4(C(F)(F)F)CC4)nn3)c3cccc4c3CNC4)cc12 [Example 451, (S)-6-((isoindolin-4-yl(1-(1-(trifluoro-methyl)cyclopropyl)-1H-1,2,3-triazol-4-yl)methyl)amino)-4-(neopentylamino)-quinoline-3,8-dicarbonitrile] |
| 0.004 | 0.073 |  |  | CC1(C)COCCC1Nc1c(C#N)cnc2c(C#N)cc(N[C@H](c3cn(C4(C(F)(F)F)CC4)nn3)c3cccc4ncsc34)cc12 (stereo partly drawn) [Example 452, 6-(((S)-benzo[d]thiazol-7-yl(1-(1-(trifluoromethyl)cyclopropyl)-1H-1,2,3-triazol-4-yl)methyl)amino)-4-((3,3-dimethyltetrahydro-2H-pyran-4-yl)amino)quinoline-3,8-dicarbonitrile] |
| 0.009 | 0.184 |  |  | CC(=O)c1cc(N[C@H](c2cn(C3(C(F)(F)F)CC3)nn2)c2cccc3ncsc23)cc2c(NCC(C)(C)C)c(C#N)cnc12 [Example 453, (S)-8-acetyl-6-((benzo[d]thiazol-7-yl(1-(1-(trifluoromethyl)cyclopropyl)-1H-1,2,3-triazol-4-yl)methyl)amino)-4-(neopentylamino)quinoline-3-carbonitrile] |
| 0.002 | 0.032 |  |  | Cc1nc(F)ccc1[C@H](Nc1cc(C#N)c2ncc(C#N)c(NCC(C)(C)C)c2c1)c1cn(C2CC2)nn1 [Example 454, (S)-6-(((1-cyclopropyl-1H-1,2,3-triazol-4-yl)(6-fluoro-2-methylpyridin-3-yl)methyl)amino)-4-(neopentylamino)-quinoline-3,8-dicarbonitrile] |
| 0.003 | 0.05 |  |  | Cn1cnc2cccc([C@H](Nc3cc(Cl)c4ncc(C#N)c(NCC(C)(C)C)c4c3)c3cn(C4CC4)nn3)c21 [Example 459, (S)-8-chloro-6-(((1-cyclopropyl-1H-1,2,3-triazol-4-yl)(1-methyl-1H-benzo[d]imidazol-7-yl)methyl)amino)-4-(neopentylamino)quinoline-3-carbonitrile] |
| 0.005 | 0.156 |  |  | CC(C)(C)CNc1c(C#N)cnc2c(C#N)cc(N[C@H](c3cn(CC(F)(F)F)nn3)c3cccc4ncsc34)cc12 [Example 460, (S)-6-((benzo[d]thiazol-7-yl(1-(2,2,2-trifluoroethyl)-1H-1,2,3-triazol-4-yl)methyl)amino)-4-(neopentylamino)-quinoline-3,8-dicarbonitrile] |
| 0.017 | 0.154 |  |  | CC(C)(C)CNc1c(C#N)cnc2c(Cl)cc(N[C@H](c3cn(C4(C(F)(F)F)CC4)nn3)c3cccc4ncccc34)cc12 [Example 461, (S)-8-chloro-4-(neopentylamino)-6-((quinolin-5-yl(1-(1-(trifluoromethyl)-cyclopropyl)-1H-1,2,3-triazol-4-yl)methyl)amino)quinoline-3-carbonitrile] |
| 0.162 | 8.77 |  |  | CC(C)(C)CNc1c(C#N)cnc2c(Cl)cc(N[C@H](c3cn(C4(C(F)(F)F)CC4)nn3)c3cccc4cnccc34)cc12 [Example 462, (S)-8-chloro-6-((isoquinolin-5-yl(1-(1-(trifluoromethyl)cyclopropyl)-1H-1,2,3-triazol-4-yl)methyl)amino)-4-(neopentylamino)quinoline-3-carbonitrile] |
| 0.002 | 0.063 |  |  | CC(C)(C)CNc1c(C#N)cnc2c(Cl)cc(N[C@H](c3cn(C4(C(N)=O)CCC4)nn3)c3cccc4ncsc34)cc12 [Example 463, (S)-1-(4-(benzo[d]thiazol-7-yl((8-chloro-3-cyano-4-(neopentylamino)quinolin-6-yl)amino)methyl)-1H-1,2,3-triazol-1-yl)cyclobutane-1-carboxamide] |
| 0.001 | 0.016 |  |  | CC(C)(C)CNc1c(C#N)cnc2c(C#N)cc(N[C@H](c3cn(C4(c5ccncc5)CC4)nn3)c3cccc4ncsc34)cc12 [Example 464, (S)-6-((benzo[d]thiazol-7-yl(1-(1-(pyridin-4-yl)cyclopropyl)-1H-1,2,3-triazol-4-yl)methyl)amino)-4-(neopentylamino)-quinoline-3,8-dicarbonitrile] |
| 0.002 | 0.155 |  |  | CC(C)(C)CNc1c(C#N)cnc2c(C#N)cc(N[C@H](c3cn(C4(CO)CC4)nn3)c3cccc4ncsc34)cc12 [Example 465, (S)-6-((benzo[d]thiazol-7-yl(1-(1-(hydroxymethyl)cyclopropyl)-1H-1,2,3-triazol-4-yl)methyl)amino)-4-(neopentylamino)quinoline-3,8-dicarbonitrile] |
| 0.028 | 0.926 |  |  | CC(C)(C)CNc1c(C#N)cnc2c(Cl)cc(N[C@H](c3cn(C4CC4)nn3)c3cncc4cnccc34)cc12 [Example 466, (S)-8-chloro-6-(((1-cyclopropyl-1H-1,2,3-triazol-4-yl)(2,7-naphthyridin-4-yl)methyl)amino)-4-(neopentylamino)-quinoline-3-carbonitrile] |
| 0.001 | 0.018 |  |  | CC(C)(C)CNc1c(C#N)cnc2c(C#N)cc(N[C@H](c3cn(C4CC4)nn3)c3cccc4cnccc34)cc12 [Example 468, (S)-6-(((1-cyclopropyl-1H-1,2,3-triazol-4-yl)(isoquinolin-5-yl)methyl)amino)-4-(neopentylamino)quinoline-3,8-dicarbonitrile] |
| 0.004 | 0.069 |  |  | CC(C)(C)CNc1c(C#N)cnc2c(C#N)cc(N[C@H](c3cn(C4(C(F)(F)F)CC4)nn3)c3cccc4ncccc34)cc12 [Example 469, (S)-4-(neopentylamino)-6-((quinolin-5-yl(1-(1-(trifluoromethyl)-cyclopropyl)-1H-1,2,3-triazol-4-yl)methyl)amino)quinoline-3,8-dicarbonitrile] |
| 0.002 | 0.046 |  |  | CC(C)(C)CNc1c(C#N)cnc2c(C#N)cc(N[C@H](c3cn(C4(C(F)(F)F)CC4)nn3)c3cccc4cnccc34)cc12 [Example 470, (S)-6-((isoquinolin-5-yl(1-(1-(trifluoromethyl)cyclopropyl)-1H-1,2,3-triazol-4-yl)methyl)amino)-4-(neopentylamino)quinoline-3,8-dicarbonitrile] |
| 0.003 | 0.045 |  |  | Cc1nc(F)ccc1[C@H](Nc1cc(C#N)c2ncc(C#N)c(NCC(C)(C)C)c2c1)c1cn(C2(C(F)(F)F)CC2)nn1 [Example 471, (S)-6-(((6-fluoro-2-methylpyridin-3-yl)(1-(1-(trifluoromethyl)cyclopropyl)-1H-1,2,3-triazol-4-yl)methyl)amino)-4-(neopentyl-amino)quinoline-3,8-dicarbonitrile] |

| Compound | IC50 (Human Cot; IC50 HTRF) [µM] | EC50 (TNFα; [1]) [µM] | IC50 (Human Cot; read-out: IC50 HTRF) [µM] | EC50 (TNFα; read-out: EC50 TNF, LPS-stimulated human monocytes, TNFα) [µM] |
| --- | --- | --- | --- | --- |
| Cc1nc(F)ccc1[C@H](Nc1cc(Cl)c2ncc(C#N)c(NCC(C)(C)C)c2c1)c1cn(C2(C(F)F)CC2)nn1 [Example 447, (S)-8-chloro-6-(((1-(1-(difluoromethyl)-cyclopropyl)-1H-1,2,3-triazol-4-yl)(6-fluoro-2-methylpyridin-3-yl)methyl)-amino)-4-(neopentylamino)quinoline-3-carbonitrile] | 0.002 | 0.04 |  |  |
| CC(C)(C)ONc1c(C#N)cnc2c(C#N)cc(N[C@H](c3cn(C4CC4)nn3)c3cccc4ncsc34)cc12 [Example 456, (S)-6-((benzo[d]thiazol-7-yl(1-cyclopropyl-1H-1,2,3-triazol-4-yl)methyl)amino)-4-(tert-butoxyamino)quinoline-3,8-dicarbonitrile] | 0.051 | 1 |  |  |
| CC(C)(C)ONc1c(C#N)cnc2c(I)cc(N[C@H](c3cn(C4CC4)nn3)c3cccc4ncsc34)cc12 [Example 457, (S)-6-((benzo[d]thiazol-7-yl(1-cyclopropyl-1H-1,2,3-triazol-4-yl)methyl)amino)-4-(tert-butoxyamino)-8-iodoquinoline-3-carbonitrile] | 0.315 | 1 |  |  |
